Data on 13 compounds can be found in US20250049970A1, “DLL3 TARGETING PEPTIDES AND CONSTRUCTS THEREOF” (MARIANA ONCOLOGY INC., priority 2023, published 2025).

In general, Kd refers to the free concentration of one partner at which half of the binding sites on the other are occupied at equilibrium, for simple one-to-one binding.

SMILES strings stand for the structures. *1 amine or outer side, *2 acyl side, *3 side chain or, on linkers, in order; H or OH if unused. Where a SMILES comes first, the peptide text is derived from it. Bridges are numbered along the chain shown (N, C = ends). Side-chain parts run from the residue outwards. [ ]: non-standard residue; d: D form. The star is where a group is joined. X9 = CSCC[C@H](NC(=O)c1ccc(CNC(=O)CN2CCN(CC(=O)O)CCN(CC(=O)O)CCN(CC(=O)O)CC2)cc1)C(=O)N[C@H](C(=O)N[C@@H](CCCCN*)C(=O)O)C(C)C; Ala(piperidin-4-yl) = O=C([C@H](CC1CCN([*:3])CC1)N[*:1])[*:2]; DOTA = O=C(O)CN1CCN(CC(=O)O)CCN(CC(=O)*)CCN(CC(=O)O)CC1; Me3N+(CH2)2O(CH2)2O(CH2)2CO = C[N+](C)(C)CCOCCOCCC(=O)*; X3 = O=C([C@H](CC1CCN(CC(=O)[*:3])CC1)N[*:1])[*:2]; Trp(7-OMe) = COc1cccc2c(C[C@H](N)C(=O)O)c[nH]c12; Trp(7-Me) = Cc1cccc2c(C[C@H](N)C(=O)O)c[nH]c12; Phe(4-F) = N[C@@H](Cc1ccc(F)cc1)C(=O)O; 2Nal = N[C@@H](Cc1ccc2ccccc2c1)C(=O)O; NMetBuAla = CN[C@@H](CC(C)(C)C)C(=O)O; Ethylenediamine = C(CN[*:2])N[*:1]; tBuAla = CC(C)(C)C[C@H](N)C(=O)O; Chg = N[C@H](C(=O)O)C1CCCCC1; NMeNle = CCCC[C@H](NC)C(=O)O; Dab = NCC[C@H](N)C(=O)O; Nva = CCC[C@H](N)C(=O)O; Dap = NC[C@H](N)C(=O)O; CH2 = C([*:1])[*:2]

This assay addresses T1, DLL3 (Homo sapiens, UniProt Q9NYJ7).
T1 sequence (Q9NYJ7 27-618): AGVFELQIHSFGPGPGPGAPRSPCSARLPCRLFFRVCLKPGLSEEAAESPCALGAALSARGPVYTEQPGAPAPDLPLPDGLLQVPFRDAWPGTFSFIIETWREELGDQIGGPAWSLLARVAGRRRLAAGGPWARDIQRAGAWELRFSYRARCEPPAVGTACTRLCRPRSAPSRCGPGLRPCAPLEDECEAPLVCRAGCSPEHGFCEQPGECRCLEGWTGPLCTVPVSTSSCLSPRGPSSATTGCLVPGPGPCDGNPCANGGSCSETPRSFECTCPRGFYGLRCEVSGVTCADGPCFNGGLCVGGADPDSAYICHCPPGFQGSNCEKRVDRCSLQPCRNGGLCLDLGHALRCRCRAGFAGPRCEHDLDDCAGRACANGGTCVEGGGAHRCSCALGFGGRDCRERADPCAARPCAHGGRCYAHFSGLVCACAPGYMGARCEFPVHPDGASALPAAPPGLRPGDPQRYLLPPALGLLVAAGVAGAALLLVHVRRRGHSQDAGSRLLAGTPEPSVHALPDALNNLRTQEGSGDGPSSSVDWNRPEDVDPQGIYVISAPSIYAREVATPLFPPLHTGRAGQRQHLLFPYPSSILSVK
Description: SPR KD, biotinylated human DLL3 on streptavidin chip (Table 8). The arrangement: biotin (biotinylated). Conditions: biotinylated human DLL3 on streptavidin sensor chip, 25° C., 1:1 binding model; read-out: SPR KD. The text has this:
Biotinylated target ligand human DLL3 was immobilized on a streptavidin sensor chip. A reference surface was set up for nonspecific binding and refractive index changes. […] Sensorgram curves were fitted with 1:1 binding model, and affinity and kinetic parameters were obtained using Biacore Insight evaluation 4.0. software.
For the compound `CC[C@H](C)[C@H](NC(=O)[C@@H](NC(=O)[C@H](Cc1c[nH]c2ccccc12)NC(=O)[C@H](CCSC)NC(C)=O)[C@@H](C)O)C(=O)N[C@H]1CSCSC[C@@H](C(=O)N[C@@H](Cc2c[nH]c3ccccc23)C(=O)N2CCC[C@H]2C(N)=O)NC(=O)[C@H](CC(=O)O)NC(=O)[C@H](Cc2cnc[nH]2)NC(=O)[C@H](Cc2c[nH]c3ccccc23)NC(=O)[C@H](CC(N)=O)NC(=O)[C@H](CC(N)=O)NC1=O` [compound 32, Ac-M-W-T-I-C(1)-N-N-W-H-D-C(1)-W-P-CONH2] (Ac-MWTICNNWHDCWP-NH2; linker 5-11 via CH2), the Kd lay within 0.01 to 0.1 µM.
As to `CC(=O)N[C@@H](Cc1c[nH]c2ccccc12)C(=O)N[C@H](C(=O)N(C)[C@@H](CC(C)(C)C)C(=O)N[C@H]1CSCSC[C@@H](C(=O)N[C@@H](Cc2c[nH]c3ccccc23)C(=O)N2CCC[C@H]2C(N)=O)NC(=O)[C@H](CC(=O)O)NC(=O)[C@H](CCCCNC(=O)CN2CCN(CC(=O)O)CCN(CC(=O)O)CCN(CC(=O)O)CC2)NC(=O)[C@H](Cc2ccc3ccccc3c2)NC(=O)[C@H](CC(N)=O)NC(=O)[C@H](CC2CCN(CC(=O)NCCNC(=O)CN3CCN(CC(=O)O)CCN(CC(=O)O)CCN(CC(=O)O)CC3)CC2)NC1=O)[C@@H](C)O` [compound 449] (Ac-WT[NMetBuAla]C[X3]([Ethylenediamine-DOTA])N[2Nal]K(DOTA)DCWP-NH2; linker 4-10 via CH2), the Kd was under 0.001 µM.
With `CC(=O)NCCCC[C@@H](NC(=O)[C@@H]1CCCN1C(=O)[C@H](Cc1c[nH]c2ccccc12)NC(=O)[C@@H]1CSCSC[C@H](NC(=O)[C@H](CC(C)(C)C)NC(=O)[C@@H](NC(=O)[C@H](Cc2c[nH]c3ccccc23)NC(C)=O)[C@@H](C)O)C(=O)N[C@@H](CC2CCNCC2)C(=O)N[C@@H](CC(N)=O)C(=O)N[C@@H](Cc2ccc3ccccc3c2)C(=O)N[C@@H](CCCCNC(=O)CN2CCN(CC(=O)O)CCN(CC(=O)O)CCN(CC(=O)O)CC2)C(=O)N[C@@H](CC(=O)O)C(=O)N1)C(N)=O` [compound 438, Ac-W-T-(t-Bu-Ala)-C(1)-[3-(4-piperidinyl)-Ala]-N-(2Nal)-Lys(DOTA)-D-C(1)-W-P-[D-Lys(Ac)]-CONH2] (Ac-WT[tBuAla]C[Ala(piperidin-4-yl)]N[2Nal]K(DOTA)DCWP[dK](Ac)-NH2; linker 4-10 via CH2) the figure was under 0.001 µM; with `CCCC[C@@H](C(=O)N[C@H]1CSSC[C@@H](C(=O)N[C@@H](Cc2c[nH]c3ccccc23)C(=O)N2CCC[C@H]2C(N)=O)NC(=O)[C@H](CC(=O)O)NC(=O)[C@H](CCCCNC(=O)CN2CCN(CC(=O)O)CCN(CC(=O)O)CCN(CC(=O)O)CC2)NC(=O)[C@H](Cc2ccc3ccccc3c2)NC(=O)[C@H](CC(N)=O)NC(=O)[C@H](CC2CCNCC2)NC1=O)N(C)C(=O)[C@@H](NC(=O)[C@H](Cc1c[nH]c2c(OC)cccc12)NC(C)=O)[C@@H](C)O` [compound 422, Ac-(7MeO-Trp)-T-(NMe-Nle)-C(3)-[3-(4piperdinyl)-Ala]-N-(2Nal)-Lys(DOTA)-D-C(3)-W-P-CONH2] (Ac-[Trp(7-OMe)]T[NMeNle]C[Ala(piperidin-4-yl)]N[2Nal]K(DOTA)DCWP-NH2; disulfide 4-10), under 0.001 µM.
`CC[C@H](C)[C@H](NC(=O)[C@@H](NC(=O)[C@H](Cc1c[nH]c2ccccc12)NC(C)=O)[C@@H](C)O)C(=O)N[C@H]1CCC(=O)NCC[C@@H](C(=O)N[C@@H](Cc2c[nH]c3ccccc23)C(=O)N2CCC[C@H]2C(N)=O)NC(=O)[C@H](CC(=O)O)NC(=O)[C@H](Cc2c[nH]cn2)NC(=O)[C@H](Cc2c[nH]c3ccccc23)NC(=O)[C@H](CC(N)=O)NC(=O)[C@H](CC(N)=O)NC1=O` [compound 71] (Ac-WTIENNWHD[Dab]WP-NH2; lactam 4-10): the Kd was 0.1 to 0.3 µM.
Under `CC(=O)N[C@@H](Cc1c[nH]c2ccccc12)C(=O)N[C@H](C(=O)N(C)[C@@H](CC(C)(C)C)C(=O)N[C@H]1CSCSC[C@@H](C(=O)N[C@@H](Cc2c[nH]c3ccccc23)C(=O)N2CCC[C@H]2C(N)=O)NC(=O)[C@H](CC(=O)O)NC(=O)[C@H](CCCCNC(=O)CN2CCN(CC(=O)O)CCN(CC(=O)O)CCN(CC(=O)O)CC2)NC(=O)[C@H](Cc2ccc3ccccc3c2)NC(=O)[C@H](CC(N)=O)NC(=O)[C@H](CC2CCN(C(=O)CCOCCOCC[N+](C)(C)C)CC2)NC1=O)[C@@H](C)O` [compound 448] (Ac-WT[NMetBuAla]C[Ala(piperidin-4-yl)](Me3N+(CH2)2O(CH2)2O(CH2)2CO)N[2Nal]K(DOTA)DCWP-NH2; linker 4-10 via CH2) stands under 0.001 µM.
With `CC(=O)N[C@@H](Cc1c[nH]c2c(C)cccc12)C(=O)N[C@H](C(=O)N[C@H](C(=O)N[C@H]1CSSC[C@@H](C(=O)N[C@@H](Cc2c[nH]c3ccccc23)C(=O)N2CCC[C@H]2C(N)=O)NC(=O)[C@H](CC(=O)O)NC(=O)[C@H](CCCCNC(=O)CN2CCN(CC(=O)O)CCN(CC(=O)O)CCN(CC(=O)O)CC2)NC(=O)[C@H](Cc2ccc3ccccc3c2)NC(=O)[C@H](CC(N)=O)NC(=O)[C@H](CC2CCNCC2)NC1=O)C1CCCCC1)[C@@H](C)O` [compound 404, Ac-(7Me-Trp)-T-(Chg)-C(3)-[3-(4-piperidinyl)-Ala]-N-(2Nal)-Lys(DOTA)-D-C(3)-W-P-CONH2] (Ac-[Trp(7-Me)]T[Chg]C[Ala(piperidin-4-yl)]N[2Nal]K(DOTA)DCWP-NH2; disulfide 4-10) the figure was under 0.001 µM.
Consider `CCC[C@H](NC(C)=O)C(=O)N[C@@H](Cc1c[nH]c2ccccc12)C(=O)N[C@H](C(=O)N[C@H](C(=O)N[C@H]1CSSC[C@@H](C(=O)N[C@@H](Cc2c[nH]c3ccccc23)C(=O)N2CCC[C@H]2C(N)=O)NC(=O)[C@H](CC(=O)O)NC(=O)[C@H](Cc2cnc[nH]2)NC(=O)[C@H](Cc2c[nH]c3ccccc23)NC(=O)[C@H](CC(N)=O)NC(=O)[C@H](CC(N)=O)NC1=O)[C@@H](C)CC)[C@@H](C)O` [compound 440, Ac-(L-Nva)-W-T-I-C(3)-N-N-W-H-D-C(3)-W-P-CONH2] (Ac-[Nva]WTICNNWHDCWP-NH2; disulfide 5-11), for which the Kd fell in the range of 0.01 to 0.1 µM.
As to `CC[C@H](C)[C@H](NC(=O)[C@@H](NC(=O)[C@H](Cc1c[nH]c2ccccc12)NC(C)=O)[C@@H](C)O)C(=O)N[C@H]1CC(=O)NC[C@@H](C(=O)N[C@@H](Cc2c[nH]c3ccccc23)C(=O)N2CCC[C@H]2C(N)=O)NC(=O)[C@H](CC(=O)O)NC(=O)[C@H](Cc2c[nH]cn2)NC(=O)[C@H](Cc2c[nH]c3ccccc23)NC(=O)[C@H](CC(N)=O)NC(=O)[C@H](CC(N)=O)NC1=O` [compound 120, Ac-W-T-I-(L-Asp)*-N-N-W-H-D-(L-Dap)*-W-P-CONH2 (* denotes lactam between side chains between L-Asp and L-Dap)] (Ac-WTIDNNWHD[Dap]WP-NH2; lactam 4-10), the Kd lay in the range of 0.1 to 0.3 µM.
In the case of `CC(=O)N[C@@H](Cc1c[nH]c2ccccc12)C(=O)N[C@H](C(=O)N[C@@H](CC(C)(C)C)C(=O)N[C@H]1CSSC[C@@H](C(=O)N[C@@H](Cc2c[nH]c3ccccc23)C(=O)N2CCC[C@H]2C(N)=O)NC(=O)[C@H](CC(=O)O)NC(=O)[C@H](CCCCNC(=O)CN2CCN(CC(=O)O)CCN(CC(=O)O)CCN(CC(=O)O)CC2)NC(=O)[C@H](Cc2ccc3ccccc3c2)NC(=O)[C@H](CC(N)=O)NC(=O)C(CN2CCOCC2)NC1=O)[C@@H](C)O` (single isomer, unassigned) [compound 310, Ac-W-T-(t-Bu-Ala)-C(3)-[3-(1-morpholinyl)-Ala]-N-(2Nal)-Lys(DOTA)-D-C(3)-W-P-CONH2], the Kd is under 0.001 µM.
Turning to `CC[C@H](C)[C@H](NC(=O)[C@@H](NC(=O)[C@H](Cc1c[nH]c2ccccc12)NC(C)=O)[C@@H](C)O)C(=O)N[C@H]1CSSC[C@@H](C(=O)N[C@@H](Cc2c[nH]c3ccccc23)C(=O)N2CCC[C@H]2C(N)=O)NC(=O)[C@H](CC(=O)O)NC(=O)[C@H](Cc2c[nH]cn2)NC(=O)[C@H](Cc2ccc(F)cc2)NC(=O)[C@H](CC(N)=O)NC(=O)[C@H](CC(N)=O)NC1=O` [compound 49, Ac-W-T-I-C(3)-N-N-(4Fluoro-F)-H-D-C(3)-W-P-CONH2] (Ac-WTICNN[Phe(4-F)]HDCWP-NH2; disulfide 4-10), the Kd lay in the range of 0.001 to 0.01 µM.
With `CSCC[C@H](NC(=O)c1ccc(CNC(=O)CN2CCN(CC(=O)O)CCN(CC(=O)O)CCN(CC(=O)O)CC2)cc1)C(=O)N[C@H](C(=O)N[C@@H](CCCCNC(=O)CC[C@@H]1NC(=O)[C@H](Cc2ccc3ccccc3c2)NC(=O)[C@H](CC(N)=O)NC(=O)[C@H](CC2CCNCC2)NC(=O)[C@@H](NC(=O)[C@@H](NC(=O)[C@@H](NC(=O)[C@H](Cc2c[nH]c3ccccc23)NC(C)=O)[C@@H](C)O)C2CCCCC2)CSCSC[C@@H](C(=O)N[C@@H](Cc2c[nH]c3ccccc23)C(=O)N2CCC[C@H]2C(N)=O)NC(=O)[C@H](CC(=O)O)NC1=O)C(=O)O)C(C)C` [compound 425] (Ac-WT[Chg]C[Ala(piperidin-4-yl)]N[2Nal]E(X9)DCWP-NH2; linker 4-10 via CH2) the figure was under 0.001 µM; with `CSCC[C@H](NC(C)=O)C(=O)N[C@@H](Cc1c[nH]c2ccccc12)C(=O)N[C@H](C(=O)N[C@@H](C)C(=O)N[C@H]1CSSC[C@@H](C(=O)N[C@@H](Cc2c[nH]c3ccccc23)C(=O)N2CCC[C@H]2C(N)=O)NC(=O)[C@H](CC(=O)O)NC(=O)[C@H](Cc2c[nH]cn2)NC(=O)[C@H](Cc2c[nH]c3ccccc23)NC(=O)[C@H](CC(N)=O)NC(=O)[C@H](CC(N)=O)NC1=O)[C@@H](C)O` [compound 14, Ac-M-W-T-(L-Ala)-C(3)-N-N-W-H-D-C(3)-W-P-CONH2] (Ac-MWTACNNWHDCWP-NH2; disulfide 5-11), 0.01 to 0.1 µM.
